Results taken from EP0064820A1, “Substituted imidazole and imidazoline derivatives and their preparation and use” (Farmos-Yhtyma Oy, priority 1981, dated 1982).

What was measured:
[1] = tested on: Sprague-Dawley rats; test: anti-hypertensive test in urethane-anesthetized rats, blood pressure and pulse frequency recorded after injection; assay type: in vivo
Procedure: The anti-hypertensive properties of the imidazole derivatives of the present invention have been determined according to the following procedure. Sprague-Dawley rats of normal weight were first anesthetized with urethane. After this, the femoral artery was connected by way of a polyethylene tube with a blood pressure transducer. The test substance was then injected into the femoral vein and the blood pressure and the pulse frequency were registered with a recorder.

[2] = acute toxicity in mice, i.v.; conditions: mouse, in vivo, iv
Procedure: Acute toxicity was determined by using female mice of NMRI-Strain with an age of about 7 months and weighing 30-40 g. The administration of the test compound was i.v.

[3] = tested on: thrombocytes from a cow; test: antithrombotic activity in vitro: inhibition of ADP- and collagen-induced aggregation of thrombocytes, turbidimetric; assay type: cell-based; conditions: cow plasma; for inhibition of ADP-induced aggregation of thrombocytes: ADP added after 10 min incubation; for inhibition of collagen-induced aggregation of thrombocytes: collagen added after 10 min incubation
Procedure: The antithrombotic activity was investigated in vitro. The inhibiting activity of the compounds against ADP- and collagen-induced aggregation of thrombocytes was measured. In the test thrombocytes from a cow were used. To 1.2 ml of plasma containing 250000 thrombocytes/mm^3 were added 50 µl of a solution of the compound to be tested. After 10 min incubation either ADP or collagen was added. The aggregation of the thrombocytes was turbidimetrically determined at X = 605 nm.

[4] = tested on: Sprague-Dawley rats; test: anti-hypertensive test in urethane-anesthetized rats, blood pressure and pulse frequency recorded after injection; assay type: in vivo; conditions: i.c.v. dosage compared with i.v.
[5] = dose of the maximum not stated, within the active dose range

Row | SMILES | LD50 [2] [mg/kg] | inhibition of ADP-induced aggregation of thrombocytes [3] | inhibition of collagen-induced aggregation of thrombocytes [3] | further results
1 | Cc1ccc(CC(O)c2ncc[nH]2)cc1C (centres unmarked) [2-[2-(3,4-dimethylphenyl)-1-hydroxyethyl]-imidazole] | 50 | – | – | maximal decrease of the blood pressure [1, 5]: 17%
2 | Cc1c[nH]c(CCc2c(C)cccc2C)n1 [2-[2-(2,6-dimethylphenyl)-ethyl]-4-methyl-imidazole] | 25 | – | – | lowered the blood pressure by ([1]; dosage 300 µg/kg i.v.): 45%
3 | Cc1cccc(C)c1CCc1ncc[nH]1 [2-[2-(2,6-dimethylphenyl)-ethyl]-imidazole] | 20 | effectively | effectively | pulse frequency ([1]; at high dosages): slight decrease; effect on blood pressure ([1]; dose 300 µg/kg i.v.): lowered blood pressure of long duration; decrease of the blood pressure ([1]; dose 3 mg/kg i.v., rats): 30%; effect on blood pressure ([1]; dose 30 and 100 µg/kg i.v. in rats): lowered the blood pressure for a shorter time; effect on blood pressure ([1]; doses of 30 mg/kg i.v.): did not elevate the blood pressure; blood pressure lowered by i.c.v. dosage with smaller amounts (than i.v.) [4]: 10 x
4 | Cc1ccc(C)c(CCc2ncc[nH]2)c1 [2-[2-(2,5-dimethylphenyl)-ethyl]-imidazole] | 30 | – | – | maximal decrease of the blood pressure ([1]; obtained with a dose of 10 mg/kg i.v.): 37%
5 | Cc1ccccc1Cc1nc(C)c(C)[nH]1 [2-(2-methylbenzyl)-4,5-dimethyl-imidazole] | 30 | effectively | effectively | –
6 | Cc1cccc(CCC2=NCCN2)c1C [2-[2-(2,3-dimethylphenyl)-ethyl]-imidazoline] | 30 | – | – | maximal decrease of the blood pressure [1, 5]: 26%
7 | Cc1ccc(CCc2ncc[nH]2)cc1C [2-[2-(3,4-dimethylphenyl)-ethyl]-imidazole] | 40 | – | – | lowered the blood pressure by ([1]; dose 10 mg/kg): 20%
8 | Cc1cccc(C)c1CCC1=NCCN1 [2-[2-(2,6-dimethylphenyl)-ethyl]-imidazoline] | 25 | – | – | lowers the blood pressure by ([1]; dose 1-3 mg/kg in rats): 20%
9 | Cc1cccc(C)c1CC(O)c1ncc[nH]1 (stereo not drawn) [2-[2-(2,6-dimethylphenyl)-l-hydroxyethyl]-imidazole] | 60 | – | – | effect on blood pressure ([1]; dose 10 mg/kg): lowers the blood pressure for a longer period; effect on blood pressure ([1]; dose 1 and 3 mg/kg i.v.): lowering of the blood pressure of short duration; pulse frequency ([1]; dose not stated): very slightly influenced
10 | Cc1cccc(C)c1CCC(O)c1nccn1Cc1ccccc1 (centres unmarked) [1-Benzyl-2-[3-(2,6-dimethylphenyl)-1-hydroxypropyl]-imidazole] | 65 | effectively | effectively | –
11 | Cc1ccc(C)c(CC(O)c2ncc[nH]2)c1 (centres unmarked) [2-[2-(2,5-dimethylphenyl)-1-hydroxyethyl]-imidazole] | 45 | effectively | effectively | –
12 | Cc1cccc(C)c1C=Cc1ncc[nH]1 [2-[2-(2,6-dimethylphenyl)-ethenyl]-imidazole] | 40 | – | – | lowers the blood pressure by ([1]; dose 3 mg/kg i.v. in rats): 17 per cent; pulse frequency ([1]; dose not stated): no effect
13 | Cc1c[nH]c(CCc2cccc(C)c2C)n1 [2-[2-(2,3-dimethylphenyl)-ethyl]-4-methyl-imidazole] | 35 | effectively | effectively | maximal decrease of the blood pressure [1, 5]: 32%
